Laboratory results: patent US20150087627A1, “COMBINATION OF KINASE INHIBITORS AND USES THEREOF” (Intellikine LLC, priority 2011, published 2015)
Read-outs that look alike come from different tables or passages of the source.

Legend:
Type in all cases: biochemical
[1] = target: T1, PI3K α (p110α/p85α) (Homo sapiens, UniProt P42336); experiment: PI 3-Kinase (human) HTRF assay, PI3K α; conditions: read-out: PI3K α IC50
T1 construct: purchased Upstate / Millipore Corporation
Description: (§1) Briefly, the assay is a time resolved FRET assay that indirectly measures PIP3 product formed by the activity of a PI3-K. The kinase reaction is performed in a microtiter plate (e.g., a 384 well microtiter plate). The total reaction volume is approximately 20 ul per well. In the first step, each well receives 2 ul of test compound in 20% dimethylsulphoxide resulting in a 2% DMSO final concentration. […] The plate is sealed and incubated for 15 minutes at room temperature. […] The plate is sealed and incubated for 1 hour at room temperature. The reaction is stopped by adding 5 ul of Stop Solution per well and then 5 ul of Detection Mix is added per well. The plate is sealed, incubated for 1 hour at room temperature, and then read on an appropriate plate reader. Data is analyzed and IC50s are generated using GraphPad Prism 5.

[2] = target: T2, mTOR (Homo sapiens, UniProt P42345); experiment: mTOR kinase inhibition assay (radiometric or LanthaScreen TR-FRET); conditions: read-out: mTORC IC50
T2 construct: purchased Invitrogen
Description: The cross-activity or lack thereof of one or more compounds of the present invention against mTor can be measured according to any procedures known in the art or methods disclosed below.
The compounds described herein can be tested against recombinant mTOR (Invitrogen) in an assay containing 50 mM HEPES, pH 7.5, 1 mM EGTA, 10 mM MgCl2, 2.5 mM, 0.01% Tween, 10 μM ATP (2.5 μCi of μ-32P-ATP), and 3 μg/mL BSA. Rat recombinant PHAS-1/4EBP1 (Calbiochem; 2 mg/mL) is used as a substrate. Reactions are terminated by spotting onto nitrocellulose, which is washed with 1M NaCl/1% phosphoric acid (approximately 6 times, 5-10 minutes each). Sheets are dried and the transferred radioactivity quantitated by phosphorimaging.
For instance, one can use Invitrogen's LanthaScreen™ Kinase assay to test the inhibitors of mTOR disclosed herein. This assay is a time resolved FRET platform that measures the phosphorylation of GFP labeled 4EBP1 by mTOR kinase. The kinase reaction is performed in a white 384 well microtiter plate. The total reaction volume is 20 ul per well and the reaction buffer composition is 50 mM HEPES pH7.5, 0.01% Polysorbate 20, 1 mM EGTA, 10 mM MnCl2, and 2 mM DTT. In the first step, each well receives 2 ul of test compound in 20% dimethylsulphoxide resulting in a 2% DMSO final concentration. […] The plate is sealed and incubated for 1 hour at room temperature. […] The plate is sealed, incubated for 1 hour at room temperature, and then read on a plate reader set up for LanthaScreen™ TR-FRET. Data is analyzed and IC50s are generated using GraphPad Prism 5.

[3] = target: T3, PI3K γ (p110γ) (Homo sapiens, UniProt P48736); experiment: PI 3-Kinase (human) HTRF assay, PI3K γ; conditions: read-out: PI3K γ IC50
T3 construct: purchased Upstate / Millipore Corporation

[4] = target: T4, PI3K β (p110β/p85α) (Homo sapiens, UniProt P42338); experiment: PI 3-Kinase (human) HTRF assay, PI3K β; conditions: read-out: PI3K β IC50
T4 construct: purchased Upstate / Millipore Corporation

[5] = target: T5, PI3K δ (Homo sapiens, UniProt O00329); experiment: PI 3-Kinase (human) HTRF assay, PI3K δ; conditions: read-out: PI3K δ IC50
T5 construct: purchased Upstate / Millipore Corporation
T5 sequence (O00329 whole entry): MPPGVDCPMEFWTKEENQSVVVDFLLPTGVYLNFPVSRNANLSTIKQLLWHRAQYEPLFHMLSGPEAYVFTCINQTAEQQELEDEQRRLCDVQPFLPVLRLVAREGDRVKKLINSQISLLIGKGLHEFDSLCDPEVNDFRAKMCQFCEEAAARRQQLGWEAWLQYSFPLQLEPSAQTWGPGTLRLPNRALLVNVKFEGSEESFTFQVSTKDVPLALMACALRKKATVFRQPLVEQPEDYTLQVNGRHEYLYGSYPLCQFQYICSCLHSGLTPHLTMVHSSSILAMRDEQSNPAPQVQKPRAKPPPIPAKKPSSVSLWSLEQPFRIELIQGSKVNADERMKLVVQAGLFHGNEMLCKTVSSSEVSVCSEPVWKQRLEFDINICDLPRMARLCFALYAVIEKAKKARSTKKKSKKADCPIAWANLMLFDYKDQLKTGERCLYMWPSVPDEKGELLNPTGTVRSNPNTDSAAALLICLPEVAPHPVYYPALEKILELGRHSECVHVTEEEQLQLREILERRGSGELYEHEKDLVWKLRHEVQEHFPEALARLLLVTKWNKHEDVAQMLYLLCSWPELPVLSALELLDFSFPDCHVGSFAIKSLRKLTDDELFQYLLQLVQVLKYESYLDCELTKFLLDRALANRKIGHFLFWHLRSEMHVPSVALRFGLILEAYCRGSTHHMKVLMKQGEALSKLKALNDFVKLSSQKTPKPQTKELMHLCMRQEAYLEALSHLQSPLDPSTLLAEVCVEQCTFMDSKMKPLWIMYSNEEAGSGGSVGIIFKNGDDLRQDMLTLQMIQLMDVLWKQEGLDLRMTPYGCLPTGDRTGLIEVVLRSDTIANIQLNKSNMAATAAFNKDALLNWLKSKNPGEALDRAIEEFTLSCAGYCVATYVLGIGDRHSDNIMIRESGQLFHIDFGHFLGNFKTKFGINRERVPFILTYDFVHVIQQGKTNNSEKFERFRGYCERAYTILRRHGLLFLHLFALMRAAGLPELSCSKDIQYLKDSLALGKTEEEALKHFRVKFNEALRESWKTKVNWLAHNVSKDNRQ
T5 sequence (P27986 whole entry partner): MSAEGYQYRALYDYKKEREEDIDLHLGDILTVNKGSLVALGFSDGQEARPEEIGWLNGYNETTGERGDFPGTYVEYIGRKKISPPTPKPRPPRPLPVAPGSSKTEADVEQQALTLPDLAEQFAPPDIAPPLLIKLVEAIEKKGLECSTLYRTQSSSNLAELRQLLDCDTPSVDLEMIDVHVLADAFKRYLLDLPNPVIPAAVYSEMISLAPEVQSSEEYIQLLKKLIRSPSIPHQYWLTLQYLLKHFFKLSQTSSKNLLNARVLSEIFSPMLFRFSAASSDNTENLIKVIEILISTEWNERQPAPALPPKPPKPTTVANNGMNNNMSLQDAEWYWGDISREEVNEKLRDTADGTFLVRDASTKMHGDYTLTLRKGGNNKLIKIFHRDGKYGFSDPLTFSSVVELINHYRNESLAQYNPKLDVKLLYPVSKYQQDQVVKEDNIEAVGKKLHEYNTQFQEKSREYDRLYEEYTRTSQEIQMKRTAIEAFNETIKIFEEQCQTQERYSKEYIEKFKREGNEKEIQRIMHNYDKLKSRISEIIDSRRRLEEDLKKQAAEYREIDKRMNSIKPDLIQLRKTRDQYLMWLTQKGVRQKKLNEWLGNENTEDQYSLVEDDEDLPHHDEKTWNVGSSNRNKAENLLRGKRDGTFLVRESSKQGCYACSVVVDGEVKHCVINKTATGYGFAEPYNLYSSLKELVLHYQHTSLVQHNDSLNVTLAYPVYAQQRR
Description: as §1

T3 sequence (P48736 whole entry): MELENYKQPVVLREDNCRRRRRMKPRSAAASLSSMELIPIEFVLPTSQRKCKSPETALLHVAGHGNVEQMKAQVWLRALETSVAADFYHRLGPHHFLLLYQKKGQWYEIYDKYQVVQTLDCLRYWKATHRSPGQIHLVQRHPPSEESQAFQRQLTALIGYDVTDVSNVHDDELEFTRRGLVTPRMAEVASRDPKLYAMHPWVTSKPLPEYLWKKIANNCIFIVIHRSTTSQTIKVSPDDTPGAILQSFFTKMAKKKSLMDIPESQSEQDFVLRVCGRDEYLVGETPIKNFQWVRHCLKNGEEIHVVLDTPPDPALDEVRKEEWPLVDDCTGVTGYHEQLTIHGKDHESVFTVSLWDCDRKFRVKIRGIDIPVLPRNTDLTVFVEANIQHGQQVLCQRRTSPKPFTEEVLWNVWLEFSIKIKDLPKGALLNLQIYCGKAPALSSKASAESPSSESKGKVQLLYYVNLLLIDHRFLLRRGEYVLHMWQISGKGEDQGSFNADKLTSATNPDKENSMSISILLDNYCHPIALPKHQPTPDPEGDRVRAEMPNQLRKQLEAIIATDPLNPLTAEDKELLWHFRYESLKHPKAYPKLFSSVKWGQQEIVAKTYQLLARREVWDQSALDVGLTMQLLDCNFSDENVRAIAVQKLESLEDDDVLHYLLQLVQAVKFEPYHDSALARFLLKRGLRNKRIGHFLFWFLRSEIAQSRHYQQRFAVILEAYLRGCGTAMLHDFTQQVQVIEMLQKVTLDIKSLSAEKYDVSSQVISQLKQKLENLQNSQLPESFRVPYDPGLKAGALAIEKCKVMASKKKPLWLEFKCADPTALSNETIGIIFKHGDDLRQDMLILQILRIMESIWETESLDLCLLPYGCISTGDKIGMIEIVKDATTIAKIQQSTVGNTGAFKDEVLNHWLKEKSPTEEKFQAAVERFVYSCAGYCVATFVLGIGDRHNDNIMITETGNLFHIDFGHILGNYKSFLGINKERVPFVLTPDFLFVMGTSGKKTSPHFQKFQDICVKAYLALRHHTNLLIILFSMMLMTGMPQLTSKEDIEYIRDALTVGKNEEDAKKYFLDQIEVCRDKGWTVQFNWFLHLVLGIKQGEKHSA
T4 sequence (P42338 whole entry): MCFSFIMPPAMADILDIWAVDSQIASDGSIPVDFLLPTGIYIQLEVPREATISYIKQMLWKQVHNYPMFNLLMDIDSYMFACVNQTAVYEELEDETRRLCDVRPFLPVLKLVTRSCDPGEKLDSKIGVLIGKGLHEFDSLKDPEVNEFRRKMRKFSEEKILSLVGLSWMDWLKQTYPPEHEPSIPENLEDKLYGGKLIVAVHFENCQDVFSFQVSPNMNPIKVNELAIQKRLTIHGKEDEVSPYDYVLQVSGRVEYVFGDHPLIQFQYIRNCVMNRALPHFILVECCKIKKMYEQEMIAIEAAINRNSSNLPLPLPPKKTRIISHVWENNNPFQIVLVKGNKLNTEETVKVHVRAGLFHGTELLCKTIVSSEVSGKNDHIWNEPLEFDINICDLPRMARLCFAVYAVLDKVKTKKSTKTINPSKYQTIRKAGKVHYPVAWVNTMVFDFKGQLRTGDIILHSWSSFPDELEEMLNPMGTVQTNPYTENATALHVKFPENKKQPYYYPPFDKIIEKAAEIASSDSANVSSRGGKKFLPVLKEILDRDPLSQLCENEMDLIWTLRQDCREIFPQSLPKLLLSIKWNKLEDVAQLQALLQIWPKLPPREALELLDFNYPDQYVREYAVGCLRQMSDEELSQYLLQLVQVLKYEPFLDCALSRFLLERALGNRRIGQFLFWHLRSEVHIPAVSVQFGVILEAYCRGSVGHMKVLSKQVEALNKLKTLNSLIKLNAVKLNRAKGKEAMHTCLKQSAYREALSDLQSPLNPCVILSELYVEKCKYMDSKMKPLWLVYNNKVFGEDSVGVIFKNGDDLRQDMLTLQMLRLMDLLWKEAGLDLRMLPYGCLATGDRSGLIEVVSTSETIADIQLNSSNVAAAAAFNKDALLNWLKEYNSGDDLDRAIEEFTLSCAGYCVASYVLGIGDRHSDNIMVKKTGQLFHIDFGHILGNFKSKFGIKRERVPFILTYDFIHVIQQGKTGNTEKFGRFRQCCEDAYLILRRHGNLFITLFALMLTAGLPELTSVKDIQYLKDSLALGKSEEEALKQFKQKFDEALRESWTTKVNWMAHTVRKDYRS
T4 sequence (P27986 whole entry partner): as the sequence (P27986 whole entry partner) above
T1 sequence (P42336 whole entry): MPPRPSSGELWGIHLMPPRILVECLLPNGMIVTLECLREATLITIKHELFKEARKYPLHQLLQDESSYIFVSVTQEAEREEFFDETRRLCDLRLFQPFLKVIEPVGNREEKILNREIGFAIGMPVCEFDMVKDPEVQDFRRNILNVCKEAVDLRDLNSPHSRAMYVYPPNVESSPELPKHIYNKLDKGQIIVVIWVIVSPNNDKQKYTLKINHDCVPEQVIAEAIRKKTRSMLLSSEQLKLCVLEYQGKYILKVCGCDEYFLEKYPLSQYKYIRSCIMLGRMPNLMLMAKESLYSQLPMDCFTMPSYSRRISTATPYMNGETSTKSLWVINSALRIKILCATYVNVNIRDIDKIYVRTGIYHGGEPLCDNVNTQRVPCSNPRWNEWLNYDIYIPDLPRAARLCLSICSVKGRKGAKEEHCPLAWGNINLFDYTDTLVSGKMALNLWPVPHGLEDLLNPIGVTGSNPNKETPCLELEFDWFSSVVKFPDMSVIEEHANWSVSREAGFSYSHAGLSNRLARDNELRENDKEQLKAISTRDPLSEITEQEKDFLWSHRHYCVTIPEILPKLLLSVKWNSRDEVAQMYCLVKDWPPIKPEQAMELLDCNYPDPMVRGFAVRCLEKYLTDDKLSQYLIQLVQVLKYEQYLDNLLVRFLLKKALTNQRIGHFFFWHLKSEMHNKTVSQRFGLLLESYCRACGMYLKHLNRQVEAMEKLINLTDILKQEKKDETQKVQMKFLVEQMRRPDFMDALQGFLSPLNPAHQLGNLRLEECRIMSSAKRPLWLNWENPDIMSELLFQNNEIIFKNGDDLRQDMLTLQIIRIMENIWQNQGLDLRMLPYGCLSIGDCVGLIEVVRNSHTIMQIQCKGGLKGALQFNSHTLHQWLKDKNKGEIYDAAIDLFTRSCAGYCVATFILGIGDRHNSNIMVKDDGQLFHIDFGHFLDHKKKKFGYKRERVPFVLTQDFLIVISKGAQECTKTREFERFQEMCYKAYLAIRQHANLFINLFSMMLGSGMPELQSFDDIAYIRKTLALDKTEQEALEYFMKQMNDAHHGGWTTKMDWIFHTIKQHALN
T1 sequence (P27986 whole entry partner): as the sequence (P27986 whole entry partner) above

## Nc1nc2cc(-c3ccc4ncc(N5CC(N6CCNCC6)C5)nc4c3)ccc2o1 [Compound 326]
[1]
  IC50: < 100 nM
[2]
  IC50: > 10000 nM
[3]
  IC50: < 1000 nM
[4]
  IC50: < 1000 nM
[5]
  IC50: < 1000 nM

## CC(C)N1CCN(C2CN(c3cnc4ccc(-c5ccc6oc(N)nc6c5)cc4n3)C2)CC1 [Compound 331]
[1]
  IC50: < 100 nM
[2]
  IC50: > 10000 nM
[3]
  IC50: < 10000 nM
[4]
  IC50: < 10000 nM
[5]
  IC50: < 10000 nM

## Nc1nc2cc(-c3ccc4ncc(N5CC(N6CCOCC6)C5)cc4n3)ccc2o1 [Compound 604]
[1]; Table 4 (PI3K α inhibitors)
  IC50: < 100 nM
[2]; Table 4 (PI3K α inhibitors)
  IC50: > 10000 nM
[3]; Table 4 (PI3K α inhibitors)
  IC50: < 1000 nM

## O=C(c1cnc2ccc(-c3cnc(Cl)c(NS(=O)(=O)c4ccc(F)cc4F)c3)cn12)N1CCOCC1 [Compound 419]
[1]
  IC50: < 100 nM
[2]
  IC50: < 1000 nM
[3]
  IC50: < 100 nM
[4]
  IC50: < 100 nM
[5]
  IC50: < 100 nM

## Nc1nc2cc(-c3ccc4ncc(N5CCC(N6CCOCC6)CC5)nc4c3)ccc2o1 [Compound 171]
[1]
  IC50: < 100 nM
[2]
  IC50: > 10000 nM
[3]
  IC50: < 1000 nM
[4]
  IC50: < 1000 nM
[5]
  IC50: < 1000 nM

## CC(C)Oc1nc(-c2ccc3oc(N)nc3c2)cnc1N [Compound 237]
[1]
  IC50: < 10000 nM
[2]
  IC50: < 1000 nM
[3]
  IC50: < 10000 nM
[4]
  IC50: < 10000 nM

## CC(=O)Nc1cn2cc(-c3ccc4oc(N)nc4c3)ccc2n1 [Compound 234]
[1]
  IC50: < 100 nM
[2]
  IC50: < 1000 nM
[3]
  IC50: < 100 nM
[4]
  IC50: < 1000 nM
[5]
  IC50: < 100 nM

## Nc1nc2cc(-c3nc(N4CCOCC4)c4cnn(C5CCNCC5)c4n3)ccc2o1 [Compound 348]
[1]
  IC50: < 1000 nM
[2]
  IC50: < 1000 nM
[3]
  IC50: < 1000 nM
[4]
  IC50: < 100 nM
[5]
  IC50: < 10000 nM

## Cc1ccn(C2CN(c3cnc4ccc(-c5ccc6oc(N)nc6c5)cc4n3)C2)n1 [Compound 320]
[1]
  IC50: < 100 nM
[2]
  IC50: > 10000 nM
[3]
  IC50: < 10000 nM
[4]
  IC50: < 10000 nM
[5]
  IC50: < 10000 nM

## Nc1nc2cc(-c3ccc4ncn(C5CCOCC5)c(=O)c4c3)ccc2o1 [Compound 55]
[1]
  IC50: < 1000 nM
[2]
  IC50: > 10000 nM
[3]
  IC50: > 10000 nM
[5]
  IC50: > 10000 nM

## CN(C)CC(=O)N1CCN(c2cnc3ccc(-c4ccc5oc(N)nc5c4)cc3n2)CC1 [Compound 139]
[1]
  IC50: < 100 nM
[2]
  IC50: > 10000 nM
[3]
  IC50: < 1000 nM
[4]
  IC50: < 1000 nM
[5]
  IC50: < 1000 nM

## Nc1nc2cc(-c3ccc4ncc(N5CCN(C(=O)C6(N)CC6)CC5)nc4n3)ccc2o1 [Compound 592]
[1]; Table 4 (PI3K α inhibitors)
  IC50: < 100 nM
[2]; Table 4 (PI3K α inhibitors)
  IC50: < 10000 nM
[3]; Table 4 (PI3K α inhibitors)
  IC50: < 100 nM
[4]; Table 4 (PI3K α inhibitors)
  IC50: < 10000 nM
[5]; Table 4 (PI3K α inhibitors)
  IC50: < 10000 nM

## Nc1nc2cc(-c3ccc4ncc(N5CC(N6CCN(CCO)CC6)C5)nc4c3)ccc2o1 [Compound 333]
[1]
  IC50: < 100 nM
[2]
  IC50: > 10000 nM
[3]
  IC50: < 10000 nM
[4]
  IC50: < 10000 nM
[5]
  IC50: < 1000 nM

## CC(=O)N1CCC(Nc2ncnc3ccc(-c4ccc5oc(N)nc5c4)cc23)CC1 [Compound 60]
[1]
  IC50: < 100 nM
[2]
  IC50: < 1000 nM
[3]
  IC50: < 100 nM
[4]
  IC50: < 10000 nM
[5]
  IC50: < 1000 nM

## C[C@@H]1CN(C(=O)C2CN(c3cnc4ccc(-c5ccc6oc(N)nc6c5)cc4n3)C2)CCN1 [Compound 267]
[1]
  IC50: < 100 nM
[2]
  IC50: < 10000 nM
[3]
  IC50: < 1000 nM
[4]
  IC50: < 10000 nM
[5]
  IC50: < 1000 nM

## Nc1nc2cc(-c3ccc4ncc(N5CC(N6CC[C@H](O)C6)C5)nc4c3)ccc2o1 [Compound 322]
[1]
  IC50: < 100 nM
[2]
  IC50: > 10000 nM
[3]
  IC50: < 1000 nM
[4]
  IC50: < 1000 nM

## C[C@H]1CN(c2cnc3ccc(-c4ccc5oc(N)nc5c4)nc3c2)CCN1 [Compound 598]
[1]; Table 4 (PI3K α inhibitors)
  IC50: < 100 nM
[2]; Table 4 (PI3K α inhibitors)
  IC50: > 10000 nM
[3]; Table 4 (PI3K α inhibitors)
  IC50: < 1000 nM
[4]; Table 4 (PI3K α inhibitors)
  IC50: < 100 nM

## CCN1CCN(C2CN(c3cnc4ccc(-c5ccc6oc(N)nc6c5)cc4n3)C2)CC1 [Compound 329]
[1]
  IC50: < 100 nM
[2]
  IC50: > 10000 nM
[3]
  IC50: < 10000 nM
[4]
  IC50: < 1000 nM
[5]
  IC50: < 1000 nM

## Nc1nc2cc(-c3ccc4ncc(N5CCN(C(=O)[C@@H](N)CO)CC5)nc4c3)ccc2o1 [Compound 298]
[1]
  IC50: < 100 nM
[2]
  IC50: < 10000 nM
[3]
  IC50: < 10000 nM
[4]
  IC50: < 1000 nM
[5]
  IC50: < 10000 nM

## CC1(C)CN(C2CN(c3cnc4ccc(-c5ccc6oc(N)nc6c5)nc4c3)C2)CCN1 [Compound 609]
[1]; Table 4 (PI3K α inhibitors)
  IC50: < 100 nM
[2]; Table 4 (PI3K α inhibitors)
  IC50: > 10000 nM
[3]; Table 4 (PI3K α inhibitors)
  IC50: < 1000 nM
[5]; Table 4 (PI3K α inhibitors)
  IC50: < 1000 nM

## Nc1nc2cc(-c3ccc4nc(N)oc4c3)ccc2o1 [Compound 241]
[1]
  IC50: < 1000 nM
[2]
  IC50: < 10000 nM
[3]
  IC50: < 100 nM
[5]
  IC50: < 1000 nM

## N#Cc1cnc2ccc(-c3ccc4oc(N)nc4c3)cc2c1-c1ccncc1 [Compound 46]
[1]
  IC50: < 100 nM
[2]
  IC50: < 100 nM
[3]
  IC50: < 100 nM
[5]
  IC50: < 100 nM

## Cn1cc(-c2ccnc3ccc(-c4ccc5oc(N)nc5c4)cc23)cn1 [Compound 26]
[1]
  IC50: < 100 nM
[2]
  IC50: < 1000 nM
[3]
  IC50: < 100 nM
[5]
  IC50: < 100 nM

## Nc1ncc2cc(-c3ccc4nccc(-c5ccncc5)c4c3)ccc2n1 [Compound 9]
[1]
  IC50: < 1000 nM
[2]
  IC50: > 10000 nM
[3]
  IC50: < 1000 nM
[4]
  IC50: < 10000 nM

## Cc1nccn1C1CN(c2cnc3ccc(-c4ccc5oc(N)nc5c4)nc3c2)C1 [Compound 614]
[1]; Table 4 (PI3K α inhibitors)
  IC50: < 100 nM
[2]; Table 4 (PI3K α inhibitors)
  IC50: > 10000 nM
[3]; Table 4 (PI3K α inhibitors)
  IC50: < 100 nM
[5]; Table 4 (PI3K α inhibitors)
  IC50: < 1000 nM

## CN1CCN(C2CN(c3cnc4ccc(-c5ccc6oc(N)nc6c5)nc4c3)C2)CC1=O [Compound 615]
[1]; Table 4 (PI3K α inhibitors)
  IC50: < 100 nM
[2]; Table 4 (PI3K α inhibitors)
  IC50: < 10000 nM
[3]; Table 4 (PI3K α inhibitors)
  IC50: < 100 nM
[5]; Table 4 (PI3K α inhibitors)
  IC50: < 1000 nM

## C[C@@H]1CN(C2CN(c3cnc4ccc(-c5ccc6oc(N)nc6c5)nc4n3)C2)CCN1 [Compound 563]
[1]; Table 4 (PI3K α inhibitors)
  IC50: < 100 nM
[2]; Table 4 (PI3K α inhibitors)
  IC50: > 10000 nM
[3]; Table 4 (PI3K α inhibitors)
  IC50: > 10000 nM
[4]; Table 4 (PI3K α inhibitors)
  IC50: > 10000 nM

## Nc1nc2cc(-c3cccc4[nH]nc(N)c34)ccc2o1 [Compound 236]
[1]
  IC50: > 10000 nM
[2]
  IC50: > 10000 nM
[3]
  IC50: > 10000 nM
[4]
  IC50: > 10000 nM

## Nc1nc2cc(-c3ccc4nccn4c3)ccc2o1 [Compound 40]
[1]
  IC50: < 10000 nM
[2]
  IC50: < 10000 nM
[3]
  IC50: < 10000 nM
[5]
  IC50: > 10000 nM

## CN1CCN(C2CN(c3cnc4ccc(-c5ccc6oc(N)nc6c5)cc4n3)C2)CC1 [Compound 274]
[1]
  IC50: < 100 nM
[2]
  IC50: < 10000 nM
[4]
  IC50: < 10000 nM
[5]
  IC50: < 10000 nM

## CN1CCN(C(=O)c2cnc3ccc(-c4ccc5oc(N)nc5c4)cn23)CC1 [Compound 44]
[1]
  IC50: < 100 nM
[2]
  IC50: < 10000 nM
[3]
  IC50: < 10000 nM
[5]
  IC50: < 10000 nM

## Nc1nc2cc(-c3ccc4ncc(N5CCNC(C(F)(F)F)C5)nc4c3)ccc2o1 (stereo not shown) [Compound 384]
[1]
  IC50: < 100 nM
[2]
  IC50: < 1000 nM
[4]
  IC50: < 1000 nM
[5]
  IC50: < 10000 nM

## Nc1ncnc2ccc(-c3ccc4nccc(-c5ccncc5)c4c3)cc12 [Compound 8]
[1]
  IC50: < 10000 nM
[2]
  IC50: > 10000 nM
[3]
  IC50: < 1000 nM
[4]
  IC50: > 10000 nM

## CCN1CCN(C2CN(c3cnc4ccc(-c5ccc6oc(N)nc6c5)nc4c3)C2)CC1 [Compound 626]
[1]; Table 4 (PI3K α inhibitors)
  IC50: < 100 nM
[2]; Table 4 (PI3K α inhibitors)
  IC50: > 10000 nM
[4]; Table 4 (PI3K α inhibitors)
  IC50: < 1000 nM
[5]; Table 4 (PI3K α inhibitors)
  IC50: < 1000 nM

## CC(=O)N1CCC(N(C)c2ncnc3ccc(-c4ccc5oc(N)nc5c4)cc23)CC1 [Compound 137]
[1]
  IC50: < 100 nM
[2]
  IC50: > 10000 nM
[4]
  IC50: < 1000 nM
[5]
  IC50: < 1000 nM

## Nc1nc2cc(-c3ccc4ncc(N5CC(N6CCN(CCO)CC6)C5)cc4n3)ccc2o1 [Compound 616]
[1]; Table 4 (PI3K α inhibitors)
  IC50: < 100 nM
[2]; Table 4 (PI3K α inhibitors)
  IC50: > 10000 nM
[3]; Table 4 (PI3K α inhibitors)
  IC50: < 1000 nM
[5]; Table 4 (PI3K α inhibitors)
  IC50: < 1000 nM
